According to patent US9028856B2, “Synergistic pesticide compositions” (priority 2008, dated 2015):
Marks after values point to notes of the source that are not given here.

System: bedbug (Cimex lectularius)
Test: Contact efficacy against bedbugs on various surfaces (wood, PVC, wallpaper, mattress, glass)
Assay type: in vivo
Conditions: for efficacy on wood, PVC, wallpaper, mattress and glass (summary in words): Example 106, imidacloprid 0.008% or 0.0016% (30 and 6 mg a.i./m^2)
Protocol: Adult Cimex lectularius, susceptible strain, were used. A solution of the active ingredient in acetone was prepared. In the same mode a complete […]. All these works were done under drawing off conditions. After evaporation of the acetone (30′) the dishes were closed by a glass lid and transferred into the test room.
One day later ten bedbugs, anaesthetized with CO2, were counted into each dish. At regular intervals, knock down was recorded (cumulatively).
The same methodology was used as was used in Example 105.

[1] = Glass, 0.008% imidacloprid (30 mg/m^2) in acetone
[2] = Mattress, 0.0016% imidacloprid (6 mg/m^2) in acetone
[3] = Mattress, 0.008% imidacloprid (30 mg/m^2) in acetone
[4] = PVC, 0.0016% imidacloprid (6 mg/m^2) in acetone
[5] = PVC, 0.008% imidacloprid (30 mg/m^2) in acetone
[6] = Wallpaper, 0.0016% imidacloprid (6 mg/m^2) in acetone
[7] = Wallpaper, 0.008% imidacloprid (30 mg/m^2) in acetone
[8] = Wood, 0.0016% imidacloprid (6 mg/m^2) in acetone
[9] = Wood, 0.008% imidacloprid (30 mg/m^2) in acetone

O=[N+]([O-])NC1=NCCN1Cc1ccc(Cl)nc1 [imidacloprid] was tested, and the “efficacy on wood, PVC, wallpaper, mattress and glass (summary in words)” value was “No efficacy was found on wood, PVC, wallpaper and mattress”, the “efficacy on wood, PVC, wallpaper, mattress and glass (summary in words)” value (listed as 0.008% imidacloprid) was “On glass, 0.008% imidacloprid alone acted relatively fast and had killed all bed bugs within one day” and the “% knock down or moribund after 1 h” value [1] was 0%. For the same compound, the “% knock down or moribund after 2 h” value [1] was 100* %, the “% knock down or moribund after 4 h” value [1] was 85% and the “% knock down or moribund after 6 h” value [1] was 90%. The “% knock down or moribund after 1 d” value [1] was 100%, the “% knock down or moribund after 2 d” value [1] was 100% and the “% knock down or moribund after 6 d” value [1] was 100%. The “% knock down or moribund after 1 h” value [2] was 0%, the “% knock down or moribund after 2 h” value [2] was 0% and the “% knock down or moribund after 4 h” value [2] was 0%. The “% knock down or moribund after 6 h” value [2] was 0%, the “% knock down or moribund after 1 d” value [2] was 0% and the “% knock down or moribund after 2 d” value [2] was 0%. For the same compound, the “% knock down or moribund after 6 d” value [2] was 0%, the “% knock down or moribund after 1 h” value [3] was 0% and the “% knock down or moribund after 2 h” value [3] was 0%. The “% knock down or moribund after 4 h” value [3] was 0%, the “% knock down or moribund after 6 h” value [3] was 0% and the “% knock down or moribund after 1 d” value [3] was 0%. The “% knock down or moribund after 2 d” value [3] was 0%, the “% knock down or moribund after 6 d” value [3] was 0% and the “% knock down or moribund after 1 h” value [4] was 0%. The “% knock down or moribund after 2 h” value [4] was 0%, the “% knock down or moribund after 4 h” value [4] was 0% and the “% knock down or moribund after 6 h” value [4] was 0%. The “% knock down or moribund after 1 d” value [4] was 0%, the “% knock down or moribund after 2 d” value [4] was 0% and the “% knock down or moribund after 6 d” value [4] was 20%. The “% knock down or moribund after 1 h” value [5] was 0%, the “% knock down or moribund after 2 h” value [5] was 0% and the “% knock down or moribund after 4 h” value [5] was 0%. The “% knock down or moribund after 6 h” value [5] was 0%, the “% knock down or moribund after 1 d” value [5] was 0% and the “% knock down or moribund after 2 d” value [5] was 0%. The “% knock down or moribund after 6 d” value [5] was 40%, the “% knock down or moribund after 1 h” value [6] was 0% and the “% knock down or moribund after 2 h” value [6] was 0%. For the same compound, the “% knock down or moribund after 4 h” value [6] was 0%, the “% knock down or moribund after 6 h” value [6] was 0% and the “% knock down or moribund after 1 d” value [6] was 0%. For the same compound, the “% knock down or moribund after 2 d” value [6] was 0%, the “% knock down or moribund after 6 d” value [6] was 0% and the “% knock down or moribund after 1 h” value [7] was 0%. The “% knock down or moribund after 2 h” value [7] was 0%, the “% knock down or moribund after 4 h” value [7] was 0% and the “% knock down or moribund after 6 h” value [7] was 0%. For the same compound, the “% knock down or moribund after 1 d” value [7] was 0%, the “% knock down or moribund after 2 d” value [7] was 0% and the “% knock down or moribund after 6 d” value [7] was 0%. For the same compound, the “% knock down or moribund after 1 h” value [8] was 0%, the “% knock down or moribund after 2 h” value [8] was 0% and the “% knock down or moribund after 4 h” value [8] was 0%. The “% knock down or moribund after 6 h” value [8] was 0%, the “% knock down or moribund after 1 d” value [8] was 0% and the “% knock down or moribund after 2 d” value [8] was 0%. For the same compound, the “% knock down or moribund after 6 d” value [8] was 10%, the “% knock down or moribund after 1 h” value [9] was 0% and the “% knock down or moribund after 2 h” value [9] was 0%. The “% knock down or moribund after 4 h” value [9] was 0%, the “% knock down or moribund after 6 h” value [9] was 0% and the “% knock down or moribund after 1 d” value [9] was 0%. For the same compound, the “% knock down or moribund after 2 d” value [9] was 0% and the “% knock down or moribund after 6 d” value [9] was 0%.
